Measured values published in patent publication US9757408B2 (Hayashibara Co., Ltd., priority 2010, dated 2017).
Marks after values point to notes of the source that are not given here.

Experiments:
[1] = test system: mice with concanavalin A (Con A) induced liver disorder; experiment: Concanavalin A induced liver disorder mice: GPT, GOT, liver necrosis score (Experiment 12); format: in vivo, BALB/c mice; parameters: Liver function GPT / Liver function GOT: unit not given here; conditions: Con A 15 mg/kg i.v.; for Liver function GOT / Liver function GPT: serum 20 hours after Con A; for Conditions of liver tissue, Necrosis (average score): grades mild (1), moderate (2), severe (3)
Protocol: “TYPE IV”, a Con A specimen commercialized by Sigma-Aldrich Corporation, St. Louis, Mo. USA, was dissolved in physiological saline and intravenously administered to all the five mice in each six groups at a dose of 15 mg/0.2 mL. […] The five mice in the remaining one group as a control were intravenously administered with 0.2 mL/head of physiological saline, simultaneously with Con A (Experiment group 1).
For the mice in each group, they were collected blood at 20 hours after administering Con A, followed by assaying the activity of GPT and GOT in their sera with “TRANSAMINASE CII-TEST WAKO”, a commercialized assay kit produced by Wako Pure Chemical Industries Ltd., Tokyo, Japan, for use as an index for liver disorder due to hepatitis. […] The tissue specimens were stained with hematoxylin-eosin staining, followed by calculating an average of scores for judgement on the conditions of necrosis of liver tissues by microscopic observation, for use as an index for liver disorder. The results are in Table 12 in parallel. The conditions of necrosis of liver tissues were evaluated based on a microscopic observation standard of three grades of “mild (1)”, “moderate (2)”, and “severe (3)” and scored before determining the average for each group.

[2] = test system: TNF-α production of HUVEC cells; experiment: TNF-α production of HUVEC cells, LPS/IL-1β/IFN-γ (Experiment 6-1); format: cell-based, human; conditions: for TNF-α Concentration: HUVEC, LPS 10 μg/mL, IL-1β, IFN-γ; for IC50: Homo sapiens, LPS in the coexistence of IL-1β and IFN-γ, read-out: IC50 against production inhibition of TNF-α
Excerpt: The results are in Table 6 in parallel.

[3] = test system: mice with bacterial shock induced by LPS; experiment: LPS bacterial shock mice, survival, ANO, adenosine or inosine i.v. (Experiment 9); format: in vivo, BALB/c mice; conditions: LPS 18 mg/kg i.p.
Protocol: An LPS specimen derived from E. coli (055:B5), commercialized by Sigma-Aldrich Corporation, St. Louis, Mo. USA, was dissolved in PBS and intraperitoneally administered to all the seven mice in the four groups at a dose of 18 mg/kg body weight. […] Seven mice in the remaining one group were intravenously administered with PBS as a control in a volume of 0.2 mL/head (Experiment group 1). For each group, the survival number of mice was confirmed up to 7 to 43 hours after administering LPS and the survival rate (%) of mice in each group was determined.

[4] = test system: VCAM-1 expression in HUVEC cells; experiment: Expression of cell-adhesion factor VCAM-1 on HUVEC cells, fluorescent intensity (Experiment 6-3); format: cell-based, human; conditions: LPS 10 μg/mL, IL-1β, IFN-γ
Protocol: Thereafter, the supernatant in each well was removed by suction, and the cells were washed twice with PBS, followed by adding 4% paraformaldehyde to the cells and allowing them to stand at ambient temperature for one hour to fix them. After the fixation, the cells were washed thrice with PBS, followed by adding PBS containing 1% BSA and 0.05% NaN3 in an amount of 150 μL/well, and subjecting the cells to blocking at 4° C. overnight. […] Thereafter, the cells were washed four times with PBS, adding an HRPO-labeled streptavidin (“Streptavidin HRP Conjugate”, a product name of Invitrogen Corporation, CA, USA), which had been diluted with PBS containing 3% BSA by 1,000 times, in an amount of 100 μL/well and allowing the cells to stand at ambient temperature for one hour. Finally, the cells were washed four times with PBS, allowed to develop color for 10 min with “QuantaBlue™ Fluorogenic Peroxidase Substrate”, commercialized by Pierce Biotechnology, IL, USA, and determined the cells' fluorescent intensity at a wavelength of 325 to 420 nm. […] The results are in Table 6 in parallel.

[5] = test system: tissue factor expression in HUVEC cells; experiment: Expression of tissue factor in HUVEC cells, ELISA of cell lysate (Experiment 6-2); format: cell-based, human; conditions: for concentration which significantly inhibited the expression of tissue factor: LPS; for concentration which significantly inhibited the expression of tissue factor / Amount of expressed tissue factor: IL-1β, IFN-γ; for Amount of expressed tissue factor: HUVEC, LPS 10 μg/mL
Protocol: Thereafter, a solution of LPS, IL-1β, and IFN-γ were respectively prepared to give respective concentrations of 10 μg/mL, 2 ng/mL, and 500 IU/mL, added to the cells in an amount of 50 μL/well, and incubated at 37° C. for 5.5 hours in a 5% v/v CO2 incubator. After the culture, the cells were washed twice with PBS, followed by adding PBS to the resulting cells in a volume of 50 μL/well. The multi-plates were subjected to a freezing at −80° C. and thawing process thrice, followed by adding 50 mM Tris buffer (pH 7.4) containing 100 mM NaCl and 0.2% Triton X-100 to the microplates in an amount of 50 μL/well, culturing the cells at 4° C. overnight to prepare a cell lysate. The content of tissue factor in the cell lysate was determined by “AssayMax Human Tissue Factor ELISA Kit”, a product name of ELISA commercialized by Assay Pro, USA.

Row | SMILES | Liver function GOT ([1]; 127 mg/kg i.v. simultaneously) | Liver function GPT ([1]; 127 mg/kg i.v. simultaneously) | Conditions of liver tissue, Necrosis (average score) ([1]; 127 mg/kg i.v.) | TNF-α Concentration ([2]; test substance 1 μM) | TNF-α Concentration ([2]; test substance 2 μM) | TNF-α Concentration ([2]; test substance 5 μM) | IC50 ([2]; HUVEC cells) [µM] | Survival rate (%) of mice, 7 Hours ([3]; 127 mg/kg i.v. simultaneously) [%] | Survival rate (%) of mice, 19 Hours ([3]; 127 mg/kg i.v. simultaneously) [%] | Survival rate (%) of mice, 26 Hours ([3]; 127 mg/kg i.v. simultaneously) [%] | Survival rate (%) of mice, 43 Hours ([3]; 127 mg/kg i.v. simultaneously) [%] | Amount of expressed VCAM-1 ([4]; test substance 1 μM) | Amount of expressed VCAM-1 ([4]; test substance 2 μM) | Amount of expressed VCAM-1 ([4]; test substance 5 μM) | Amount of expressed VCAM-1 ([4]; test substance 10 μM) | concentration which significantly inhibited the expression of tissue factor ([5]; HUVEC cells) | Amount of expressed tissue factor ([5]; test substance 1 μM) | Amount of expressed tissue factor ([5]; test substance 2 μM) | Amount of expressed tissue factor ([5]; test substance 5 μM) | Amount of expressed tissue factor ([5]; test substance 10 μM) | also measured
1 | Nc1ncnc2c1ncn2[C@@H]1O[C@H](CO)[C@@H](O)[C@H]1O [AN, adenosine] | 4130* | 1917 | 2.5 | 53 pg/mL | 49.2 pg/mL | 40.3 pg/mL | 15.2 | 100 | 20 | 0 | 0 | 3,824 | 3,957 | 3,609** | 2,823** | at least 5 μM | 27.1 | 26.6 | 13.9** | 4.5** | TNF-α Concentration ([2]; test substance 10 μM): 31.1** pg/mL
2 | Nc1c2ncn([C@@H]3O[C@H](CO)[C@@H](O)[C@H]3O)c2nc[n+]1[O-] [ANO, adenosine N1-oxide] | – | – | – | 25.1** pg/mL | 12.3** pg/mL | 1.8** pg/mL | 0.97 | – | – | – | – | 3,920 | 3,967 | 3,603* | 2,823** | at least 0.5 μM | 12.9** | 9.4** | 0** | 0** | Liver function GOT ([1]; 45 mg/kg i.v. simultaneously): 2941++; Liver function GPT ([1]; 45 mg/kg i.v. simultaneously): 1477*; Conditions of liver tissue, Necrosis (average score) ([1]; 45 mg/kg i.v.): 2.4; Liver function GOT ([1]; 75 mg/kg i.v. simultaneously): 2654**; Liver function GPT ([1]; 75 mg/kg i.v. simultaneously): 1229*; Liver function GOT ([1]; 135 mg/kg i.v. simultaneously): 1343**; Liver function GPT ([1]; 135 mg/kg i.v. simultaneously): 687**; Conditions of liver tissue, Necrosis (average score) ([1]; 135 mg/kg i.v.): 2.0; TNF-α production inhibitory action stronger than that of adenosine ([2]; HUVEC cells, comparison of IC50): about 16 times; TNF-α Concentration ([2]; test substance 0.2 μM): 51 pg/mL; TNF-α Concentration ([2]; test substance 0.5 μM): 41.1 pg/mL; Survival rate (%) of mice, 7 Hours ([3]; 135 mg/kg i.v. simultaneously): 100%; Survival rate (%) of mice, 19 Hours ([3]; 135 mg/kg i.v. simultaneously): 80%; Survival rate (%) of mice, 26 Hours ([3]; 135 mg/kg i.v. simultaneously): 80%; Survival rate (%) of mice, 43 Hours ([3]; 135 mg/kg i.v. simultaneously): 80%; Amount of expressed VCAM-1 ([4]; test substance 0.2 μM): 4,123; Amount of expressed VCAM-1 ([4]; test substance 0.5 μM): 4,052; inhibitory strength on tissue factor expression, stronger than adenosine ([5]; HUVEC cells): at least 10 times; Amount of expressed tissue factor ([5]; test substance 0.2 μM): 27.6; Amount of expressed tissue factor ([5]; test substance 0.5 μM): 13.5**
3 | OC[C@H]1O[C@@H](n2cnc3c(O)ncnc32)[C@H](O)[C@@H]1O [IN, inosine] | 5243 | 2061 | 2.6 | – | – | – | – | 100 | 60 | 40 | 20 | – | – | – | – | – | – | – | – | – | –
